Laboratory results: patent US7524517B2, “Methods and compositions for P2X receptor calcium entry channels and other calcium entry mechanisms” (UAB Research Foundation, priority 2003, dated 2009)
“Also recorded” adds a separate entry of the source.

How the values were obtained:
[1] = test system: non-mucoid and mucoid Pseudomonas aeruginosa; assay: Bacterial growth in liquid LB medium and on LB-agar plates; format: cell-based
IB3-1 CF cells = assay: SPQ halide fluorescence assay of Cl- efflux; format: cell-based, human; details: Na+- and Mg2+-free vehicle, 3 mM Ca2+, pH 7.9
Method: Modifications to this method involved the use of NaCl at the beginning and end of protocols. Agonists were tested in NMDGNO3-containing solution (as above for Ca^2+ assays).
In our modified saline vehicle that was devoid of Na+ and Mg^2+ and enriched in Ca^2+ (3 mM) along with modifications in the halides (Cl− substituted with iodide to quench the SPQ dye and nitrate to unquench), ATP plus zinc or zinc alone was added to IB3-1 CF cells and halide efflux was rescued in these cells. The effects were dependent upon an alkaline extracellular pH (pH 7.9) and the presence of extracellular Ca^2+. In essence, the rescue of Cl− transport (measured with a different halide in this case) was dependent upon the same chemical conditions as the zinc-induced Ca^2+ entry.

[2] = test system: P2X receptor Ca^2+ entry channels; assay: Fura-2/AM fluorescence imaging of cytosolic Ca2+ in IB3-1 CF airway epithelial cells; format: cell-based, human
calcium entry channels = assay: Fura-2 fluorescence ratio, sustained calcium entry signals in mammalian cells (FIG. 19C); format: cell-based
[3] = test system: Cl− transport across the nasal mucosa; assay: In vivo nasal potential difference, rescue of Cl- secretion; parameters: species or system mouse; details: CF mice
ENaC [4] = target: T1, ENaC (Mus musculus, UniProt Q61180+Q9WU38+Q9WU39); assay: Ussing chamber / voltohmmeter recordings of ENaC-mediated Na+ absorption in airway and PKD collecting duct monolayers; format: cell-based; details: for concentrations required for inhibition in ISC recordings / doses inhibitory in PD assays: ARPKD sodium hyperabsorption; for doses inhibitory in PD assays: VTE/PD
T1 construct: from tissue; host or cells: nasal mucosa of living control, Cincinnati bitransgenic CF and delF508 CF mice
T1 sequence (Q61180 1-699): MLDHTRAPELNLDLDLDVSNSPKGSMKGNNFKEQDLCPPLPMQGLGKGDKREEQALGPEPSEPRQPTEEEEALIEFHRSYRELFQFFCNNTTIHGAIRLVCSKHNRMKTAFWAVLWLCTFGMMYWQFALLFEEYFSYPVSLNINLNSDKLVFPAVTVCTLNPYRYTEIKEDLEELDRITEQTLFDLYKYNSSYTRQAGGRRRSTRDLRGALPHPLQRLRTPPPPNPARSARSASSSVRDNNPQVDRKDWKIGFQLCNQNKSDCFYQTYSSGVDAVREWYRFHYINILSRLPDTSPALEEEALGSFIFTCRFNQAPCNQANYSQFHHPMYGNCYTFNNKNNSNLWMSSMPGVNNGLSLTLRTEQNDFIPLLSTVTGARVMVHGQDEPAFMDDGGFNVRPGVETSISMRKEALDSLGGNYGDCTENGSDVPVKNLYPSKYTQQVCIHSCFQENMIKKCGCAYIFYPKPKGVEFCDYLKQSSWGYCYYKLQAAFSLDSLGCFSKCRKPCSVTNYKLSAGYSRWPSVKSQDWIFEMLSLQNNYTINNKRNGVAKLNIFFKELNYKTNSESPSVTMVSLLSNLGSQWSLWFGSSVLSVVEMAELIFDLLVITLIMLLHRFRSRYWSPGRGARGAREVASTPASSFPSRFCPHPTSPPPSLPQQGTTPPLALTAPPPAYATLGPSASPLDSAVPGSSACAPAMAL
T1 sequence (Q9WU38 1-638): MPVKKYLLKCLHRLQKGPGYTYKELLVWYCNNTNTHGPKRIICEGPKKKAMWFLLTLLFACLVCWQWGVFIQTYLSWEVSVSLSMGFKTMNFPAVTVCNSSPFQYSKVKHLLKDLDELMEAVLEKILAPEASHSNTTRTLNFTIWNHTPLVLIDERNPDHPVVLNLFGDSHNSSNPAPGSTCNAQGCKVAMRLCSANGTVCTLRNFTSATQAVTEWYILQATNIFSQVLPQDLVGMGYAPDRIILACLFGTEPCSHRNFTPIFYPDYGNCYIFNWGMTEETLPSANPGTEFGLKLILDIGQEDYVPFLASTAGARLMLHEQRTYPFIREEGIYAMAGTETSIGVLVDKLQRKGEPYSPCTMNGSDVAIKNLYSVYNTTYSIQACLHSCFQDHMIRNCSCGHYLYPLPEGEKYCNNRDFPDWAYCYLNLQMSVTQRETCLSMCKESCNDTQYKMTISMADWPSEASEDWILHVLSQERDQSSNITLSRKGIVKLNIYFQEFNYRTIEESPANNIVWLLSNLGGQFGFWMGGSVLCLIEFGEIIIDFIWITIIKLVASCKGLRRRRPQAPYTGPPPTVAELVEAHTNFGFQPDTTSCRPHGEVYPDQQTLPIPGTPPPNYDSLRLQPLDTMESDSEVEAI
T1 sequence (Q9WU39 1-655): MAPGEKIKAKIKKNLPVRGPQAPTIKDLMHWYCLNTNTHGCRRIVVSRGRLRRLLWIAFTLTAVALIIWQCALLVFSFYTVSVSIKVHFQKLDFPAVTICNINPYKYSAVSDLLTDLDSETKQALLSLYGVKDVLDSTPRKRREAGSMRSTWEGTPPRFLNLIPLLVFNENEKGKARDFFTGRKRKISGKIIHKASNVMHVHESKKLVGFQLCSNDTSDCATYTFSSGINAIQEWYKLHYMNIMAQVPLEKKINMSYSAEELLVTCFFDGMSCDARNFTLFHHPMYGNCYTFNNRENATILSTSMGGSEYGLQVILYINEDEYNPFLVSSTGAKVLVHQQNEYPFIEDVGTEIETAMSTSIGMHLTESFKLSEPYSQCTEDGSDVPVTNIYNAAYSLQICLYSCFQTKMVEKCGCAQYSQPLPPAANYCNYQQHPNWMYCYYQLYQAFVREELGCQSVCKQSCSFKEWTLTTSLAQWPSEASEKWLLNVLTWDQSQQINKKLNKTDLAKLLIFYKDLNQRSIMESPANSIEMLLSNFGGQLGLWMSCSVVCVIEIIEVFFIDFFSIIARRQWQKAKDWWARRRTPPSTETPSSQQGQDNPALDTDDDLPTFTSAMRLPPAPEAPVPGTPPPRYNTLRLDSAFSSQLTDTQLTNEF

[5] = test system: INS-1 rat pancreatic β cells; assay: Fura-2 fluorescence assay of cell calcium in INS-1 cells; format: cell-based; details: Na+- and Mg2+-free Ringer, zinc alone 1-50 micromolar
Method: Cytosolic Ca^2+ concentration was measured with dual excitation wavelength fluorescence microscopy (Deltascan, Photon Technologies, Princeton, N.J.) after cells were loaded with the permeant form of the fluorescence dye, Fura-2-acetoxymethyl ester (Fura-2-AM; Teflabs, Austin, Tex., USA). Fura-2 fluorescence was measured at an emission wavelength of 510 nm in response to excitation wavelength of 340 nm and 380 nm, alternated at a rate of 50 Hz by a computer-controlled chopper assembly. Ratios (340 nm/380 nm) were calculated at a […] using PTI software. Cells were incubated in Dulbecco's phosphate buffered saline containing 2 mM CaCl2 and 1 mM MgCl2 in the presence of 5 μM Fura2-AM and 1 mg/ml Pluronic F-127 dissolved in DMSO for 120 min to allow loading of the dye into the cells. After loading, coverslips were rinsed at least for 10 min in Dulbecco's phosphate buffered saline to remove extracellular Fura 2-AM and the surfactant, and were positioned in the cuvette at a 45° angle from the excitation light. […] Fluorescence intensities at both wavelengths were assessed and only those preparations in which there were >200,000 counts/s for both wavelengths were used for experiments. At the beginning of each experiment, cells were perfused with solution A (see below) and the fluorescence ratio was monitored for at least 100 sec to establish a stable baseline value. […]

INS-1 cells = assay: ELISA of insulin secretion from INS-1 cells; format: cell-based, rat; details: 15 seconds to 120 minutes after stimulation
ENaC [6] = target: T1, ENaC; assay: In vivo nasal potential difference, ENaC-mediated Na+ absorption

`O=S(=O)([O-])[O-].O=S(=O)([O-])[O-].O=S(=O)([O-])[O-].[Fe+3].[Fe+3]` [Ferric iron, ferric sulfate] was tested, and the “growth, iron competition experiment” value [1] was “enhanced growth significantly”.
With `[Cl-].[Cl-].[Zn+2]` [ZnCl2, zinc chloride] the “halide efflux / Cl- permeability in CF cells” value (IB3-1 CF cells) was “restored Cl− permeability”.
In the case of `[Cu]` [copper], the “effect on zinc effects (Ca2+ entry)” value [2] is reported as “competitively inhibit”.
With `C[C@H](CCC(=O)O)C[C@H](C)C[C@H](C)C(=O)/C=C(\O)[C@H](C)C[C@H](C)C/C=C/[C@@H](C)[C@@H](O)[C@@H](C)[C@@H](O)C[C@@H]1CC[C@@](C)([C@H]2CC[C@@](C)([C@@H](C)O)O2)O1` [ionomycin] the “Fura-2 fluorescence ratio, sustained” value (calcium entry channels; ionomycin 2 μM) was 3.4.
For `CC(C)NCC(O)c1ccc(O)c(O)c1` (centres unmarked) [isoproterenol], the “effect on nasal PD” value [3] was “without effect”.
In the case of `[Ni]` [nickel, reference compound], the “concentrations required for inhibition in ISC recordings” value (ENaC [4]) is reported as “Millimolar” and the “doses inhibitory in PD assays” value (ENaC [4]) is reported as “mid-micromolar”.
With `C/C=C(/C)C(=O)O[C@H]1C(C)=C2[C@H]([C@@H]1OC(=O)CCCCCCC)[C@@](C)(OC(C)=O)C[C@H](OC(=O)CCC)[C@@]1(O)[C@H]2OC(=O)[C@@]1(C)O` [thapsigargin] the “effect on zinc-induced Ca2+ transients” value ([2]; thapsigargin pretreatment, Ca2+-free medium) was “abolished” and the “Fura-2 fluorescence ratio, transient peak (store-operated calcium channels)” value (calcium entry channels; thapsigargin 100 nM, ER store depletion and re-addition of extracellular calcium) was 3.0.
For `[Zn+2]` [zinc], the “halide efflux / Cl- permeability in CF cells” value (IB3-1 CF cells) was “rescued”, the “effect on cell calcium / Ca2+ entry” value [5] was “further sustained increase in Ca^2+ entry; also recorded: small transient increase above the sustained plateau” and the “insulin secretion versus glucose stimulus” value (INS-1 cells) was “even more potent stimulus than glucose”. For the same compound, the “depolarization of NPD” value (ENaC [6]; Cincinnati bitransgenic CF mouse) was about 10 mV, the “depolarization of NPD” value (ENaC [6]; control mouse, NaCl-replete lactated Ringer) was 3-4 mV and the “depolarization of NPD” value (ENaC [6]; deIF508 CF mouse) was 6-7 mV. The “zinc-induced increases in Ca2+” value ([2]; Ca2+-free medium) was “small and transient”, the “concentrations required for inhibition in ISC recordings” value (ENaC [4]) was “Millimolar” and the “doses inhibitory in PD assays” value (ENaC [4]) was “mid-micromolar”. The “concentration range inhibiting ENaC” value (ENaC [4]; Ussing chamber recordings) was 50 to 100 µM, the “Fura-2 fluorescence ratio, sustained calcium entry” value (calcium entry channels; Na+ free conditions, pH 7.9) was 2.1 and the IC50 ([1]; read-out: IC50, bacterial growth inhibition) was 1000 to 5000 µM.
In the case of ferrous sulfate, the “growth, iron competition experiment” value [1] is reported as “inhibit”.
For ivermectin, the “effect on zinc and/or ATP induced manganese or calcium entry” value ([2]; included with ATP and/or zinc, Fura-2 quenching and direct Fura-2 assays) was “potentiated”.
